According to PubChem BioAssay (NCI):
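Abbreviation: GI50, concentration required for 50% inhibition of growth. TGI: total growth inhibition.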

Assays:
Assay in all cases: DTP human tumour cell line panel, 384-well format
HT29 colon = tested on: HT29 colon
UACC-62 melanoma = tested on: UACC-62 melanoma
DU-145 prostate = tested on: DU-145 prostate
OVCAR-3 ovarian = tested on: OVCAR-3 ovarian
KM12 colon = tested on: KM12 colon
HCC-2998 colon = tested on: HCC-2998 colon
SK-MEL-2 melanoma = tested on: SK-MEL-2 melanoma
CAKI-1 renal = tested on: CAKI-1 renal
HCT-15 colon = tested on: HCT-15 colon
RXF 393 renal = tested on: RXF 393 renal
NCI-H522 lung = tested on: NCI-H522 lung
EKVX NSCLC = tested on: EKVX NSCLC
HS 578T breast = tested on: HS 578T breast
U251 glioblastoma = tested on: U251 glioblastoma
NCI-H322M lung = tested on: NCI-H322M lung
K-562 leukemia = tested on: K-562 leukemia
SK-MEL-5 melanoma = tested on: SK-MEL-5 melanoma
MDA-MB-435 melanoma = tested on: MDA-MB-435 melanoma
HCT-116 colon = tested on: HCT-116 colon
SF-295 CNS = tested on: SF-295 CNS
BT-549 breast = tested on: BT-549 breast
TK-10 renal = tested on: TK-10 renal
NCI-H23 lung = tested on: NCI-H23 lung
NCI/ADR-RES ovarian = tested on: NCI/ADR-RES ovarian
MOLT-4 leukemia = tested on: MOLT-4 leukemia
SNB-19 CNS = tested on: SNB-19 CNS
NCI-H460 NSCLC = tested on: NCI-H460 NSCLC
SNB-75 CNS = tested on: SNB-75 CNS

Cc1ccc(S(=O)(=O)Oc2ccc3sc4c(CO)ccc(NCCN(C)C)c4c(=O)c3c2)cc1
TGI (HT29 colon): 3.21 µM
GI50 (UACC-62 melanoma): 2.1 µM
TGI (UACC-62 melanoma): 3.56 µM
GI50 (DU-145 prostate): 2.09 µM
TGI (DU-145 prostate): 3.54 µM
GI50 (OVCAR-3 ovarian): 1.97 µM
TGI (OVCAR-3 ovarian): 3.39 µM
GI50 (KM12 colon): 1.87 µM
TGI (KM12 colon): 3.3 µM
GI50 (HCC-2998 colon): 1.94 µM
TGI (HCC-2998 colon): 3.36 µM
GI50 (SK-MEL-2 melanoma): 2.07 µM
TGI (SK-MEL-2 melanoma): 3.51 µM
GI50 (CAKI-1 renal): 1.9 µM
TGI (CAKI-1 renal): 3.34 µM
GI50 (HCT-15 colon): 2.07 µM
TGI (HCT-15 colon): 3.53 µM
GI50 (RXF 393 renal): 1.99 µM
TGI (RXF 393 renal): 3.42 µM
GI50 (NCI-H522 lung): 2.2 µM
TGI (NCI-H522 lung): 3.66 µM
GI50 (EKVX NSCLC): 1.88 µM
TGI (EKVX NSCLC): 3.3 µM
GI50 (HS 578T breast): 2.01 µM
TGI (HS 578T breast): 3.45 µM
GI50 (U251 glioblastoma): 2.22 µM
TGI (U251 glioblastoma): 3.7 µM
GI50 (NCI-H322M lung): 2.12 µM
TGI (NCI-H322M lung): 3.57 µM
GI50 (K-562 leukemia): 1.91 µM
TGI (K-562 leukemia): 3.33 µM
GI50 (SK-MEL-5 melanoma): 1.64 µM
TGI (SK-MEL-5 melanoma): 3.02 µM
GI50 (MDA-MB-435 melanoma): 2.13 µM
TGI (MDA-MB-435 melanoma): 3.57 µM
GI50 (HCT-116 colon): 2.14 µM
TGI (HCT-116 colon): 3.62 µM
GI50 (SF-295 CNS): 1.96 µM
TGI (SF-295 CNS): 3.38 µM
GI50 (BT-549 breast): 1.89 µM
TGI (BT-549 breast): 3.31 µM
GI50 (TK-10 renal): 1.99 µM
TGI (TK-10 renal): 3.41 µM
GI50 (NCI-H23 lung): 2.03 µM
TGI (NCI-H23 lung): 3.46 µM
GI50 (NCI/ADR-RES ovarian): 2.06 µM
TGI (NCI/ADR-RES ovarian): 3.5 µM
GI50 (MOLT-4 leukemia): 1.79 µM
TGI (MOLT-4 leukemia): 3.18 µM
GI50 (SNB-19 CNS): 2.21 µM
TGI (SNB-19 CNS): 3.69 µM
GI50 (NCI-H460 NSCLC): 1.9 µM
TGI (NCI-H460 NSCLC): 3.34 µM
GI50 (SNB-75 CNS): 2.35 µM
TGI (SNB-75 CNS): 3.82 µM
